From US20040265357A1, “Combination of liponic acid and glutamine in food and pharmaceutical products” (priority 2001, published 2004)
Where two headings read alike, the source gives them in different places.

Legend:
[1] = test system: experimentally induced cerebral ischemia; conditions: cited from earlier work
experimental rat model = conditions: cited from earlier work; for effectiveness against buthionine sulfoximine-induced cataract: comparison of enantiomers and racemate
rats = conditions: oral administration; cited from earlier work
mice = conditions: oral administration; cited from earlier work
[2] = test system: U937 cells, a human myelomonocyclic cell line; experiment: Increase in intracellular glutathione levels, U937 cells (GSH by HPLC); type: cell-based
Experimental: (§1) Human Jurkat T cells and U937 cells, a human myelomonocyclic cell line, were used for the experiments. Jurkat and U937 cells were cultivated in RPMI 1640 medium (Bio Whittaker, Belgium)—supplemented with 10% heat-inactivated fetal calf serum (FCS; Linaris, Germany), 1% penicillin/streptomycin (Life Technologies, Scotland) and 2 mM L-glutamine (Sigma, Mont.)—under standard conditions (95% humidity, 5% CO2 and 37° C.). After harvesting, the cells were washed 2× with PBS, resuspended in standard medium (RPMI 1640 with 10% FCS, 1% streptomycin/penicillin, without L-glutamine) in a concentration of 2×10^5 cells/ml and transferred into […] culture bottles. The cells were treated with and without addition of 2 mM glutamine and in each case with or without 100 μM α-lipoic acid over a period of 4, 8, 24 or 48 h. After the respective treatment period had elapsed, the cells were harvested and washed 2× with PBS. 2×10^6 cells were resuspended in sulfosalicylic acid (6.5% in distilled water; Marck, Germany) and incubated on ice for 15 min. The supernatant after pelleting of the cells (5 000 g, 10 min) was aspirated off and stored at −20° C. until glutathione was determined by HPLC.

Human Jurkat T cells = experiment: Increase in intracellular glutathione levels, Jurkat T cells (GSH by HPLC); type: cell-based
Experimental: as §1

diabetes patients = conditions: daily 600 mg for more than 3 months; cited from earlier work
mice 6-8 weeks old = conditions: mice on vitamin E-deficient diet; 1.65 g/kg of body weight; cited from earlier work
aged mice = conditions: cited from earlier work
[3] = 0.05 mM glutamine added to culture medium
[4] = 2 mM glutamine added to culture medium

## O=C(O)CCCC[C@@H](S)CCS (racemic) [dihydrolipoic acid]
[1]; 50 and 100 mg/kg body weight
  infarct size: reduction in the infarct size

## O=C(O)CCCCC1CCSS1 (racemic) [racemic mixture]
Experimental rat model
  effectiveness against buthionine sulfoximine-induced cataract: effective

## O=C(O)CCCC[C@H]1CCSS1 (single isomer, unassigned) [S enantiomer]
Experimental rat model
  effectiveness against buthionine sulfoximine-induced cataract: effective

## O=C(O)CCCC[C@@H]1CCSS1 [(R)-α-lipoic acid, (R)-5-(1,2-dithiolan-3-yl) valeric acid]
Experimental rat model
  effectiveness against buthionine sulfoximine-induced cataract: effective
rats
  mitochondrial function: improvement in mitochondrial function

## NC(=O)CCC(N)C(=O)O (stereo not drawn) [glutamine, 2-aminopentanoic acid 5-amide]
mice
  number of lymphocytes in Peyer's patches: increased number of lymphocytes
[2]; [3]
  concentration of reduced glutathione (GSH): no significant change
[2]; [4]
  concentration of reduced glutathione (GSH): significant increases
Human Jurkat T cells; [3]
  concentration of reduced glutathione (GSH): no significant change
Human Jurkat T cells; [4]
  concentration of reduced glutathione (GSH): significant increases

## O=C(O)CCCCC1CCSS1 (stereo not drawn) [lipoic acid, 5-(1,2-dithiolan-3-yl)valeric acid]
Experimental rat model; rat model, subcutaneous injection 25 mg/kg body weight twice
  cataract induced by buthionine sulfoximine: significant reduction
Diabetes patients
  oxidative stress: reduction in oxidative stress
[1]; iv, 25 mg/kg body weight
  infarct size: reduction in the infarct size
Mice 6-8 weeks old
  symptoms of vitamin E deficiency phenomena (muscular dystrophy, weight loss): prevents the symptoms
Aged mice
  long-term memory: improve the long-term memory
